Test system: IL-2 secretion by Jurkat T cells
Assay: Inhibition of IL-2 secretion
Assay type: cell-based
Conditions: Homo sapiens; Jurkat T cells stimulated with PHA, 20 to 24 hours, IL-2 by ELISA
Method: The CRAC channel modulatory activity of the compounds were thus evaluated by measuring the secretion of IL-2 by antigen stimulated T-cells in vitro. Alternatively, such activity can also be evaluated by assay methods known to one skilled in the art.
Inhibition of IL-2 secretion: Jurkat T cells were seeded at a density of 0.5 to 1 million cells per well in RPMI medium. Test compounds from this invention were added to the cells at different concentrations. This was followed by the addition of PHA, a T cell mitogen after 10 minutes. The cells were then incubated for 20 to 24 hours in a CO2 incubator at 37° C. After incubation with the compounds, cells were centrifuged, the supernatant was collected and processed for ELISA to quantitate the amount of IL-2 secreted. A commercial ELISA kit (R&D Systems, Inc. Minneapolis, Minn., USA) was used to estimate the IL-2 concentrations. Amount of IL-2 secreted by cells stimulated with PHA was considered as a 100% maximal signal and the decrease in amount of IL-2 secreted by cells treated with the test compounds was expressed as percent inhibition of the maximal signal. The dose response data was analyzed using 4-parametric sigmoidal dose response (variable slope) curve-fit.

| Structure (SMILES) | IC50 [nM] |
| --- | --- |
| CCc1c(-c2ccc(NC(=O)c3c(F)cccc3F)cc2)ccc2c1oc(=O)n2C [Example 16, N-(4-(7-Ethyl-3-methyl-2-oxo-2,3-dihydrobenzo [d]oxazol-6-yl)phenyl)-2,6-difluorobenzamide] | 25 to 50 |
| Cc1cc2oc(=O)n(C(F)F)c2cc1-c1ccc(NC(=O)c2c(F)cccc2F)nc1 [Example 77, N-(5-(3-(Difluoromethyl)-6-methyl-2-oxo-2,3-dihydrobenzo[d]oxazol-5-yl)pyridin-2-yl)-2,6 difluorobenzamide] | < 25 |
| Cc1cc2oc(=O)n(C)c2cc1-c1ccc(C(=O)Nc2c(F)cncc2F)s1 [Example 60, N-(3,5-Difluoropyridin-4-yl)-5-(3,6-dimethyl-2-oxo-2,3-dihydrobenzo [d]oxazol-5-yl) thiophene-2-carboxamide] | < 25 |
| Cc1c(-c2ccc(NC(=O)c3c(F)cccc3F)cc2)cnc2c1oc(=O)n2C [Example 1, N-(4-(3,7-Dimethyl-2-oxo-2,3-dihydrooxazolo[4,5-b]pyridin-6-yl)phenyl)-2,6-difluorobenzamide] | 25 to 50 |
| CN1C(=O)COc2cc(-c3ccc(NC(=O)c4c(F)cccc4F)nc3)c(C3CC3)cc21 [Example 115, N-(5-(6-Cyclopropyl-4-methyl-3-oxo-3,4-dihydro-2H-benzo[b][1,4]oxazin-7-yl)pyridin-2-yl)-2,6-difluorobenzamide] | < 25 |
| Cn1c(=O)oc2cc(C3CC3)c(-c3ccc(NC(=O)c4c(F)cccc4F)cc3)cc21 [Example 94, N-(4-(6-Cyclopropyl-3-methyl-2-oxo-2,3-dihydrobenzo [d]oxazol-5-yl)phenyl)-2,6-difluorobenzamide] | < 25 |
| CN1C(=O)COc2cc(C3CC3)c(-c3ccc(NC(=O)c4c(F)cccc4F)cc3)cc21 [Example 131, N-(4-(7-Cyclopropyl-4-methyl-3-oxo-3,4-dihydro-2H-benzo[b][1,4]oxazin-6-yl)phenyl)-2,6-difluorobenzamide] | 50 to 100 |
| Cn1c(=O)oc2c(C3CC3)c(-c3ccc(NC(=O)c4c(F)cccc4F)cc3)cnc21 [Example 9, N-(4-(7-Cyclopropyl-3-methyl-2-oxo-2,3-dihydrooxazolo[4,5-b]pyridin-6-yl)phenyl)-2,6-difluorobenzamide] | 25 to 50 |
| Cc1cc2oc(=O)n(C)c2cc1-c1ccc(C(=O)Nc2c(Cl)cncc2Cl)s1 [Example 61, N-(3,5-Dichloropyridin-4-yl)-5-(3,6-dimethyl-2-oxo-2,3-dihydrobenzo [d]oxazol-5-yl)thiophene-2-carboxamide] | 25 to 50 |
| Cn1c(=O)oc2c(C3CC3)c(-c3ccc(NC(=O)c4c(F)cccc4F)cc3)ccc21 [Example 23, N-(4-(7-Cyclopropyl-3-methyl-2-oxo-2,3-dihydrobenzo[d]oxazol-6-yl)phenyl)-2,6-difluorobenzamide] | 25 to 50 |
| CCn1c(=O)oc2cc(C)c(-c3ccc(NC(=O)c4c(F)cccc4F)cc3)cc21 [Example 28, N-(4-(3-Ethyl-6-methyl-2-oxo-2,3-dihydrobenzo[d]oxazol-5-yl)phenyl)-2,6-difluorobenzamide] | 50 to 100 |
| CCc1c(-c2cnc(NC(=O)c3c(F)cccc3F)cn2)cnc2c1oc(=O)n2C [Example 6, N-(5-(7-Ethyl-3-methyl-2-oxo-2,3-dihydrooxazolo [4,5-b]pyridin-6-yl)pyrazin-2-yl)-2,6-difluorobenzamide] | 100 to 500 |
| Cn1c(=O)oc2cc(-c3ccc(NC(=O)c4c(F)cccc4F)cc3)c(C3CC3)nc21 [Example 36, N-(4-(5-Cyclopropyl-3-methyl-2-oxo-2,3-dihydrooxazolo [4,5-b]pyridin-6-yl)phenyl)-2,6-difluorobenzamide] | < 25 |
| CCc1cc2c(cc1-c1ccc(NC(=O)c3c(F)cccc3F)nc1)oc(=O)n2C [Example 69, N-(5-(5-Ethyl-3-methyl-2-oxo-2,3-dihydrobenzo [d]oxazol-6-yl)pyridin-2-yl)-2,6-difluoro benzamide] | 25 to 50 |
| Cn1c(=O)oc2cc(C3CC3)c(-c3ccc(C(=O)Nc4c(F)cccc4F)s3)cc21 [Example 89, 5-(6-Cyclopropyl-3-methyl-2-oxo-2,3-dihydrobenzo[d]oxazol-5-yl)-N-(2,6-difluorophenyl) thiophene-2-carboxamide] | < 25 |
| Cc1cc2oc(=O)n(C)c2cc1-c1ccc(NCc2c(F)cccc2F)cc1 [Example 55, 5-(4-((2,6-Difluorobenzyl)amino)phenyl)-3,6-dimethyl benzo[d] oxazol-2(3H)-one] | < 25 |
| CN1C(=O)COc2cc(-c3ccc(NCc4c(F)cccc4F)cc3)c(C3CC3)cc21 [Example 114, 6-Cyclopropyl-7-(4-((2,6-difluorobenzyl)amino)phenyl)-4-methyl-2H-benzo[b][1,4]oxazin-3(4H)-one] | < 25 |

| Structure (SMILES) | IC50 [nM] |
| --- | --- |
| CCc1cc2oc(=O)n(C)c2cc1-c1cnc(NC(=O)c2c(F)cccc2F)cn1 [Example 80, N-(5-(6-Ethyl-3-methyl-2-oxo-2,3-dihydrobenzo[d]oxazol-5-yl)pyrazin-2-yl)-2,6-difluoro benzamide] | 50 to 100 |
| Cc1cc2oc(=O)n(C)c2cc1-c1cnc(NC(=O)c2c(F)cccc2F)cn1 [Example 51, N-(5-(3,6-dimethyl-2-oxo-2,3-dihydrobenzo[d]oxazol-5-yl)pyrazin-2-yl)-2,6-difluorobenzamide] | 50 to 100 |
| CCc1cc2c(cc1-c1ccc(NC(=O)c3c(F)cccc3F)cc1)oc(=O)n2C [Example 43, N-(4-(5-Ethyl-3-methyl-2-oxo-2,3-dihydrobenzo[d]oxazol-6-yl)phenyl)-2,6-difluorobenzamide] | < 25 |
| Cc1cc2c(cc1-c1ccc(NC(=O)c3c(F)cccc3F)cc1)OCC(=O)N2C [Example 123, N-(4-(4,6-Dimethyl-3-oxo-3,4-dihydro-2H-benzo[b][1,4]oxazin-7-yl)phenyl)-2,6-difluorobenzamide] | < 25 |
| Cc1c(-c2ccc(NC(=O)c3c(F)cccc3F)cc2)ccc2c1oc(=O)n2C [Example 14, N-(4-(3,7-Dimethyl-2-oxo-2,3-dihydrobenzo [d]oxazol-6-yl)phenyl)-2,6-difluorobenzamide] | 50 to 100 |
| Cc1cc2oc(=O)n(C)c2cc1-c1ccc(NC(=O)c2c(F)cccc2F)nc1 [Example 53, N-(5-(3,6-Dimethyl-2-oxo-2,3-dihydrobenzo [d]oxazol-5-yl)pyridin-2-yl)-2,6-difluoro benzamide] | 25 to 50 |
| CCc1cc2oc(=O)n(C)c2cc1-c1ccc(C(=O)Nc2c(F)cncc2F)cc1 [Example 92, N-(3,5-Difluoropyridin-4-yl)-4-(6-ethyl-3-methyl-2-oxo-2,3-dihydrobenzo [d]oxazol-5-yl) benzamide] | < 25 |
| Cn1c(=O)oc2c(C3CC3)c(-c3ccc(NC(=O)c4c(F)cccc4Cl)cc3)ccc21 [Example 101, 2-Chloro-N-(4-(7-cyclopropyl-3-methyl-2-oxo-2,3-dihydrobenzo[d]oxazol-6-yl)phenyl)-6-fluorobenzamide] | < 25 |
| CCc1cc2c(cc1-c1cnc(NC(=O)c3c(F)cccc3F)cn1)N(C)C(=O)CO2 [Example 133, N-(5-(7-Ethyl-4-methyl-3-oxo-3,4-dihydro-2H-benzo[b][1,4]oxazin-6-yl)pyrazin-2-yl)-2,6-difluorobenzamide] | 100 to 500 |
| CN1C(=O)COc2cc(-c3cnc(NC(=O)c4c(F)cccc4F)cn3)c(C3CC3)cc21 [Example 116, N-(5-(6-Cyclopropyl-4-methyl-3-oxo-3,4-dihydro-2H-benzo[b][1,4]oxazin-7-yl)pyrazin-2-yl)-2,6-difluorobenzamide] | < 25 |
| CCc1cc2oc(=O)n(C)c2cc1-c1ccc(NC(=O)c2c(F)cccc2F)cn1 [Example 81, N-(6-(6-Ethyl-3-methyl-2-oxo-2,3-dihydrobenzo [d]oxazol-5-yl)pyridin-3-yl)-2,6-difluoro benzamide] | 50 to 100 |
| CN1C(=O)COc2c1ncc(-c1ccc(NC(=O)c3c(F)cccc3F)cc1)c2C1CC1 [Example 112, N-(4-(8-Cyclopropyl-4-methyl-3-oxo-3,4-dihydro-2H-pyrido[3,2-b][1,4]oxazin-7-yl)phenyl)-2,6-difluorobenzamide] | 25 to 50 |
| Cn1c(=O)oc2cc(C3CC3)c(-c3cnc(NC(=O)c4c(F)cccc4F)cn3)cc21 [Example 84, N-(5-(6-Cyclopropyl-3-methyl-2-oxo-2,3-dihydrobenzo [d]oxazol-5-yl)pyrazin-2-yl)-2,6-difluorobenzamide] | 25 to 50 |
| Cc1cc2c(cc1-c1ccc(NCc3c(F)cccc3F)cc1)OCC(=O)N2C [Example 127, 7-(4-((2,6-Difluorobenzyl)amino)phenyl)-4,6-dimethyl-2H-benzo [b][1,4]oxazin-3(4H)-one] | 50 to 100 |
| CN1C(=O)COc2cc(-c3ccc(NC(=O)c4c(F)cccc4F)cc3)c(C3CC3)cc21 [Example 113, N-(4-(6-Cyclopropyl-4-methyl-3-oxo-3,4-dihydro-2H-benzo[b][1,4]oxazin-7-yl)phenyl)-2,6-difluorobenzamide] | < 25 |
| CCc1cc2oc(=O)n(C)c2cc1-c1ccc(C(=O)Nc2c(F)cccc2F)s1 [Example 88, N-(2,6-Difluorophenyl)-5-(6-ethyl-3-methyl-2-oxo-2,3-dihydrobenzo [d]oxazol-5-yl) thiophene-2-carboxamide] | < 25 |
| Cc1cc2oc(=O)n(C(F)F)c2cc1-c1ccc(NC(=O)c2c(F)cccc2F)cn1 [Example 76, N-(6-(3-(Difluoromethyl)-6-methyl-2-oxo-2,3-dihydrobenzo[d]oxazol-5-yl)pyridin-3-yl)-2,6-difluorobenzamide] | 25 to 50 |
